From patent US20250090505A1, “Methods for Preventing Ectopic Brain Mineralization in Alzheimer's Disease and Dementias” (Tzerma LLC, priority 2022, published 2025)

How the values were obtained:
[1] = tested on: HCN-2 cells; assay: Inhibition of biomineralization (hydroxyapatite production) by HCN-2 cells, Alizarin Red staining; type: cell-based, human; conditions: for effect on alkaline phosphatase and alpha-glycerophosphate triggered biomineralization / hydroxyapatite production by HCN-2 cells, each compound alone: FIGS. 5A-5B
[2] = references 30-31; cited from earlier work
[3] = tested on: in vitro biomineralization reaction; assay: Titration of the elements that trigger the in vitro biomineralization reaction; type: cell-based; conditions: titration assays, calcium, αGP and TNAP concomitantly present
Experimental: It is determined herein that the biomineralization reaction is dose-dependent on calcium, alpha-glycerophosphate and alkaline phosphatase. It is known that the physiological concentration of alkaline phosphatase in the brain is 1-2 international units per liter (IU/L), which is substantially lower than alkaline phosphatase in peripheral blood serum (44 to 147 IU/L)) (35, 36). […] The minimum dose of calcium, αGP, and TNAP that promptly triggers in vitro biomineralization reaction is 0.45 mM, 1.0 mM, and 100 IU/L, respectively (22).
To measure the physiological glycerophosphate, a method to quantify this organic compound in peripheral blood serum was invented The method of quantifying alpha-glycerophosphate is disclosed in international publication WO 2021/076851, the entirety of which is hereby incorporated by reference. […] The physiological concentration of alpha-glycerophosphate varied substantially amid adult individuals with a mean value of 2.90 mM and standard deviation of 1.98 (median=2.42 mM, max=9.60 mM, and min=0.15 mM). The wide range of alpha-glycerophosphate in blood is likely attributed to personal diet, e.g., a fatty diet and gut microbiome, and physical activity because alpha-glycerophosphate is a metabolite derived from fat to energize mitochondria (37). Overall, 83% of tested samples contained alpha-glycerophosphate greater than 1.0 mM, which is sufficient to trigger biomineralization when calcium and alkaline phosphatase are concomitantly present.

Molecule | effect on alkaline phosphatase and alpha-glycerophosphate triggered biomineralization [1] | hydroxyapatite production by HCN-2 cells, each compound alone ([1]; in vitro) | crossing of the blood-brain barrier [2] | minimum dose that promptly triggers in vitro biomineralization reaction [3] | other results
O=C(O)P(=O)(O)O [Foscarnet, phosphonoformic acid] | inhibitory effects | entirely cease | cross the blood-brain barrier |  | concentration of Foscarnet that can competitively inhibit biomineralization ([1]; in vitro, HCN-2 cells, MEMα/10% FBS with αGP and TNAP, 7 days, Alizarin Red (FIGS. 5A-5B)): at least 0.02 mM
Cl.c1ccc([C@H]2CN3CCSC3=N2)cc1 [Levamisole, (−)-(s)-2,3,5,6-tetrahydro-6-phenylimidazo(2,1-b)thiazole mono hydrochloride] | inhibitory effects | entirely cease | cross the blood-brain barrier |  | concentration of Levamisole at which biomineralization is inhibited ([1]; HCN-2 cells, alpha-glycerophosphate 2 mM, recombinant human TNAP 1,000 U/L): 1 mM
[Ca+2] [calcium] |  |  |  | 0.45 mM | 
O=P(O)(O)OCC(O)CO (stereo not drawn) [αGP, alpha-glycerophosphate] |  |  |  | 1.0 mM | minimum dose that promptly triggers in vitro biomineralization reaction ([3]; listed as alpha-glycerophosphate): ≥ 1.0 mM
TNAP: human tissue nonspecific alkaline phosphatase, element that triggers biomineralization (protein, UniProt P05186 18-501, looked up) Alkaline phosphatase, …: LVPEKEKDPKYWRDQAQETLKYALELQKLNTNVAKNVIMFLGDGMGVSTVTAARILKGQLHHNPGEETRLEMDKFPFVALSKTYNTNAQVPDSAGTATAYLCGVKANEGTVGVSAATERSRCNTTQGNEVTSILRWAKDAGKSVGIVTTTRVNHATPSAAYAHSADRDWYSDNEMPPEALSQGCKDIAYQLMHNIRDIDVIMGGGRKYMYPKNKTDVEYESDEKARGTRLDGLDLVDTWKSFKPRYKHSHFIWNRTELLTLDPHNVDYLLGLFEPGDMQYELNRNNVTDPSLSEMVVVAIQILRKNPKGFFLLVEGGRIDHGHHEGKAKQALHEAVEMDRAIGQAGSLTSSEDTLTVVTADHSHVFTFGGYTPRGNSIFGLAPMLSDTDKKPFTAILYGNGPGYKVVGGERENVSMVDYAHNNYQAQSAVPLRHETHGGEDVAVFSKGPMAHLLHGVHEQNYVPHVMAYAACIGANLGHCAPAS |  |  |  | 100 IU/L | 
